Test results reported in patent US20110160158A1, “METHODS OF TREATMENT OF BIPOLAR DISORDER” (REPLIGEN CORPORATION, priority 2008, published 2011).

Assays:
[1] = test system: children with mitochondrial disease; details: 2 g/m^2 three times daily for up to two years; cited from earlier work
[2] = test system: patients undergoing chemotherapy with 5-fluorouracil; details: 6 g four times a day; cited from earlier work
[3] = test system: patients with Bipolar I Disorder, Most Recent Episode Depressed; assay: Six-week double blind placebo-controlled dose-escalation study of uridine in bipolar I depression: MADRS; assay type: in vivo, human; details: for True difference in mean MADRS between groups (uridine vs placebo): week 6; for Mean change of MADRS from baseline (treatment response), percent: total group; for Average improvement on MADRS over placebo: weeks 2-6
[4] = test system: patients with Bipolar I Disorder, Most Recent Episode Depressed; assay: Same six-week study: Clinical Global Impression for bipolar disorder (CGI-BP-S / CGI-BP-C); assay type: in vivo, human; details: for Average CGI-C-BP (Depression) / Average CGI-C-BP (Overall): 7-point scale, 4 = no change, lower = improved
From the text: The CGI-BP scale is a modification of the clinical global impression for use in bipolar disorder as a global assessment of patient severity and change of status (Spearing et al., 1997, Psychiatry Res., 73:159-171). The CGI-BP-S rates the severity of the illness on a 7 point scale. The CGI-BP-C rates the change in the severity of disease compared to baseline. This also uses a 7 point scale, anchored by a score of 4 which correlates to no change since the initiation of treatment. Lower scores correspond to improvement, higher to worsening.
(§1) A six-week, double blind, placebo-controlled, dose-escalation study was performed to assess the safety and efficacy of uridine in bipolar I depression. Eight-four (84) patients of both sexes were enrolled at twelve sites, randomized on a 1:1 basis to receive either placebo or uridine. To decrease the probability of a false negative result, uridine or placebo were given as monotherapy, and no concurrent bipolar medications, including mood stabilizers, atypical antipsychotics, antidepressants, anticonvulsants or other psychotropic medications were allowed during the study. Patients taking such medications were tapered gradually during the 28 days prior to initiation of the trial. Patients were evaluated each week over the 6-week trial period, with an extensive intervention plan for any patient having exacerbation of bipolar or depressive symptoms. After the trial period, patients were eligible to initiate therapy for bipolar disease and a follow-up visit occurred at week ten.
Informed consent was provided by all patients.
Subjects in the uridine treatment group were given either 2 g per day (low dose) or 4 g per day (high dose) of uridine. Subjects in the placebo group were given tablets of identical size and appearance with identical dosing instructions.
A dose of 1 g orally twice daily (2 g/day) was chosen to initiate treatment, with an increase to 2 g orally twice daily (4 g/day) in the absence of clinical improvement. On Day 1, all patients received a single dose of either placebo or uridine (2 g). This loading dose was done in order to compare pharmacokinetics of uridine at study start and end. Beginning on Day 2, patients received either placebo and uridine at a dose of 2 g/day administered as 1 g orally twice daily (2 tablets twice daily) for one week. At the Day 8 visit, the dose was increased to 4 g/day administered as 2 g orally twice daily (4 tablets twice daily) if there had been no serious untoward drug-related adverse events, and if the subject had less than a 25% improvement on the MADRS from baseline (Day 1). Patients that remained on 2 g/day were increased to 4 g/day at a subsequent visit if the improvement from baseline on the MADRS was less than 25%. Likewise, subjects having adverse events at the high dose were decreased to the low dose at the discretion of the investigator. On Day 43, all patients received a single dose of either placebo or uridine administered as 2 g orally twice daily (4 tablets twice daily), regardless of dose regimen. This was the patients' last dose of study drug.
The CGI-BP is a clinical impression scale that has been adapted for bipolar disorder and is comprised of an overall score, a depression score and a mania score. The CGI in this study used the severity of disease (CGI-BP-S) at study day 1 as the anchor point and the change from baseline (CGI-BP-C) in subsequent evaluations. Each assessment was intended to measure the change from the study start. The severity of disease (baseline) was similar between groups (Uridine=4.48; Placebo=4.68, n.s.), which are similar in magnitude to published efficacy trials in bipolar I depression (Brown et al., 2006, J. Clin. Psychiatry, 67:1025-33; Calabrese et al., 1999, J. Clin. Psychiatry, 60:79-88; Thase et al., 2006, J. Clin. Psychiatry, 26:600-609; Tohen et al., 2003, Arch. Gen. Psychiatry, 60:1079-88; Goldberg et al., 2007, Am. J. Psychiatry, 164:1348-55; Nierenberg et al., 2006, Am. J. Psychiatry, 163:210-216). […]

[5] = test system: patients with Bipolar I Disorder, Most Recent Episode Depressed; assay type: in vivo, human
Protocol: (§2) The YMRS is an 11 item scale designed to measure core manic symptoms (Young et al., Br. J. Psychiatry, 133:429-435). A cumulative score of 15 or greater on the YMRS was considered evidence of a treatment emergent affective switch. The HAM-A scale is a measure of global anxiety, including cognitive and somatic symptoms.
as §1
Informed consent was provided by all patients. […]

[6] = test system: patients with Bipolar I Disorder, Most Recent Episode Depressed; assay: Same six-week study: Hamilton Anxiety Scale (HAM-A); assay type: in vivo, human
Protocol: as §2
as §1, with “After the trial period, patients were eligible to initiate therapy for bipolar disease and a follow-up visit occurred at week ten.” left out
The effect on anxiety in uridine-treated bipolar I depression subjects in comparison to placebo was evaluated using the mean HAM-A scores for each group.

[7] = test system: patients (e.g. hereditary orotic aciduria); details: cited from earlier work
[8] = test system: patients undergoing cancer chemotherapy; details: cited from earlier work
[9] = in vivo; cited from earlier work
[10] = Wk 10, follow-up a month after treatment concluded

## CC(=O)OC[C@H]1O[C@@H](n2ccc(=O)[nH]c2=O)[C@H](OC(C)=O)[C@@H]1OC(C)=O [TAU, Triacetyluridine]
[1]
  Adverse events: no adverse events were reported
[2]
  Adverse effects: no adverse effects

## O=c1ccn([C@@H]2O[C@H](CO)[C@@H](O)[C@H]2O)c(=O)[nH]1 [uridine]
[3]; Baseline (Study Day 1)
  MADRS change from baseline, as percentage of the baseline score, Δ (%): 0%
[3]; Baseline (Study Day 1), all patients
  Average MADRS score: 30.28
[3]; Day 43, subjects with <2 episodes of mania or hypomania
  Difference in change from baseline of average MADRS vs placebo (Δ): −8.2
[3]; Day 43, subjects with <10 episodes of depression
  Difference in change from baseline of average MADRS vs placebo (Δ): −1.7
[3]; Day 43, subjects with ≧10 episodes of depression, p=0.18
  Difference in change from baseline of average MADRS vs placebo (Δ): 5.8
[3]; Wk 1
  MADRS change from baseline, as percentage of the baseline score, Δ (%): −25.8%
[3]; Wk 1, oral 2-4 g/day, all patients
  Average MADRS score: 22.46
[3]; Wk 2
  MADRS change from baseline, as percentage of the baseline score, Δ (%): −37.9%
[3]; Wk 2, oral 2-4 g/day, all patients
  Average MADRS score: 18.81
[3]; Wk 3
  MADRS change from baseline, as percentage of the baseline score, Δ (%): −52.5%
[3]; Wk 3, oral 2-4 g/day, all patients
  Average MADRS score: 15.90
[3]; Wk 4
  MADRS change from baseline, as percentage of the baseline score, Δ (%): −54.0%
[3]; Wk 4, oral 2-4 g/day, all patients
  Average MADRS score: 13.93
[3]; Wk 5
  MADRS change from baseline, as percentage of the baseline score, Δ (%): −50.6%
[3]; Wk 5, oral 2-4 g/day, all patients
  Average MADRS score: 14.97
[3]; Wk 6
  MADRS change from baseline, as percentage of the baseline score, Δ (%): −58.1%
[3]; Wk 6 (end of treatment), oral 2-4 g/day, all patients
  Average MADRS score: 12.69
[3]; [10]
  Average MADRS score: 15.91
  MADRS change from baseline, as percentage of the baseline score, Δ (%): −47.5%
[3]; baseline adjusted as a covariate, all patients
  Effect size from MERM change in mean MADRS score compared to placebo: 0.43
[3]; final assessment 4 weeks after study drug administration was completed
  Rebound in the MADRS assessment after end of dosing: no rebound
[3]; mixed effects repeat measures, day 1 to day 43, total scores p=0.011, percent change from baseline p=0.014
  Difference of the mean MADRS scores in comparison to placebo (primary efficacy outcome): statistically significant
[3]; patients with <5 manic episodes, Day 1
  Improvement in MADRS score (Uridine vs Placebo): −0.64
[3]; patients with <5 manic episodes, Day 8
  Improvement in MADRS score (Uridine vs Placebo): −3.57
[3]; patients with <5 manic episodes, Day 15
  Improvement in MADRS score (Uridine vs Placebo): −1.39
[3]; patients with <5 manic episodes, Day 22
  Improvement in MADRS score (Uridine vs Placebo): −1.20
[3]; patients with <5 manic episodes, Day 29
  Improvement in MADRS score (Uridine vs Placebo): −1.76
[3]; patients with <5 manic episodes, Day 36
  Improvement in MADRS score (Uridine vs Placebo): −4.62
[3]; patients with <5 manic episodes, Day 43
  Improvement in MADRS score (Uridine vs Placebo): −6.56
[3]; patients with a history of fewer than 2 episodes of mania
  Response (MADRS vs placebo): No positive response
[3]; patients with ≧5 manic episodes, Day 1
  Improvement in MADRS score (Uridine vs Placebo): 0.37
[3]; patients with ≧5 manic episodes, Day 8
  Improvement in MADRS score (Uridine vs Placebo): 1.63
[3]; patients with ≧5 manic episodes, Day 15
  Improvement in MADRS score (Uridine vs Placebo): 4.41
[3]; patients with ≧5 manic episodes, Day 22
  Improvement in MADRS score (Uridine vs Placebo): 6.33
[3]; patients with ≧5 manic episodes, Day 29
  Improvement in MADRS score (Uridine vs Placebo): 7.07
[3]; patients with ≧5 manic episodes, Day 36
  Improvement in MADRS score (Uridine vs Placebo): 3.20
[3]; patients with ≧5 manic episodes, Day 43 (week 6)
  Improvement in MADRS score (Uridine vs Placebo): 5.88
[3]; study end (week 6), subset with 15 or more episodes of depression
  Treatment response, MADRS change from baseline: 58%
[3]; study end, subset with <15 historic episodes of depression
  MADRS improvement from baseline: 58%
[3]; subset with <15 historic episodes of depression (49 subjects)
  Difference in mean MADRS scores between treatment and placebo groups: no appreciable difference
[3]; week 3 to week 6, all patients
  Average true difference in mean MADRS (corrected for baseline) vs placebo: 3.2 points
[3]; week 6 (Day 43), subjects with ≧2 episodes of mania or hypomania, p=0.11
  True difference in mean MADRS vs placebo (Δ): 5.7
[3]; subjects with 15 or more episodes of mania and/or hypomania
  True difference in mean MADRS between groups (uridine vs placebo): 9.46
[3]; subjects with history of 15 or more episodes of depression
  True difference in mean MADRS between groups (uridine vs placebo): 6.35
[3]; total score (all subjects)
  True difference in mean MADRS between groups (uridine vs placebo): 3.04
[3]; week 6 end of study, all patients
  Mean change of MADRS from baseline: 17.6 points
[3]; week 6 end of study
  Mean change of MADRS from baseline (treatment response), percent: 58%
[3]; week 6 end of study, listed as RG2417
  Mean change of MADRS from baseline (treatment response), percent: 58.1%
[3]; all patients in the study, p=0.01
  Average improvement on MADRS over placebo: 3.0 points
[3]; patients with more than 5 episodes of depression (n=50), p<0.001
  Average improvement on MADRS over placebo: 5.5 points
[4]; CGI-BP-C overall, p=0.044
  Change in CGI vs placebo, MERM analysis of the treatment period: significant difference
[4]; Wk 1
  Average CGI-C-BP (Depression): 3.05
  Average CGI-C-BP (Overall): 3.19
[4]; Wk 2
  Average CGI-C-BP (Depression): 2.72
  Average CGI-C-BP (Overall): 2.92
[4]; Wk 3
  Average CGI-C-BP (Depression): 2.31
  Average CGI-C-BP (Overall): 2.45
[4]; Wk 4
  Average CGI-C-BP (Depression): 2.10
  Average CGI-C-BP (Overall): 2.33
[4]; Wk 5
  Average CGI-C-BP (Depression): 2.14
  Average CGI-C-BP (Overall): 2.31
[4]; Wk 6
  Average CGI-C-BP (Depression): 2.03
  Average CGI-C-BP (Overall): 2.21
[5]; in vivo
  Exacerbation of mean YMRS on treatment: did not exacerbate the mean YMRS
[5]; while on treatment, p=0.025
  Change in YMRS from baseline in comparison to placebo, MERM: significant decrease
[6]
  Mean HAM-A score vs placebo, MERM over the treatment period: no difference between groups
[7]; dosages higher than 1000 mg/kg/day
  Effect of higher dosages in some patients: mild diarrhea
[7]; dosages of up to 1000 mg/kg/day
  Toxic effects of pure uridine, long-term experience: no known toxic effects
[7]; oral, doses greater than 240 mg/kg
  Plasma uridine levels: 60 to 80 µM
[7]; oral, typically at doses greater than 240 mg/kg
  Side effects noted with high dose oral uridine: diarrhea and abdominal cramps
[8]
  Main side effects seen with IV uridine: infusion site phlebitis and transient shivering and fever
[8]; intravenous, cancer chemotherapy context
  Sustained elevations in plasma uridine: exceeding 2,000 μM
[9]
  Volume distribution: around 0.634 liters/kg
